What all share (test): DTP human tumour cell line panel, 48 h
Experiment [1] relates to CCRF-CEM.
Experiment [2] deals with TK-10.
Experiment [3] concerns SK-OV-3.
In experiment [4] the test system is MDA-MB-231.
The subject of experiment [5] is OVCAR-8.
The subject of experiment [6] is IGROV-1.
Experiment [7] concerns M14.
Experiment [8] deals with KM12.
The test system of experiment [9] is SF-268.
Experiment [10] deals with Hs-578T.
Experiment [11] relates to UACC-62.
Experiment [12] has as its system NCI-H23.
In experiment [13] the test system is MDA-MB-435.
The subject of experiment [14] is OVCAR-5.
In experiment [15] the test system is 786-0.
In experiment [16] the test system is COLO 205.
The subject of experiment [17] is HCT-15.
Experiment [18] concerns U-251.
Experiment [19] has as its system HOP-92.
For experiment [20], the system named is RXF 393.

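A five-concentration, 48-hour dose response in 96-well plates underlies each endpoint, interpolated linearly between surrounding concentrations. GI50: concentration for 50% inhibition of growth.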 The source made the active and inactive calls. Rule as the data show it: active = GI50 up to about 1.1 µM and inactive = higher. Where only a bound is given, the exact number is not on record here.

In general, GI50 refers to the concentration giving 50% growth inhibition. Consider `Fc1ccc(C(OCCN2CC3CCC(C2)N3CCCc2ccccc2)c2ccc(F)cc2)cc1`, for which the GI50 is 2.71 µM (inactive) in experiment [1]; 11.7 µM (inactive) in [2]; 10.2 µM (inactive) in experiment [3]; 2.74 µM (inactive) in experiment [4]; 2.3 µM (inactive) in experiment [5]; 8.71 µM (inactive) in experiment [6]. Besides, the GI50 was 2.48 µM (inactive) in experiment [7]; 3.18 µM (inactive) in experiment [8]; 4.5 µM (inactive) in [9]; 3.25 µM (inactive) in experiment [10]; 9.51 µM (inactive) in [11]; 4.25 µM (inactive) in experiment [12]. The GI50 is 2.13 µM (inactive) in [13]; 10.6 µM (inactive) in experiment [14]; 3.62 µM (inactive) in experiment [15]; 1.41 µM (inactive) in experiment [16]; 3.42 µM in [17]; 4.54 µM (inactive) in experiment [18]. For the same compound, in [19], the GI50 is 8.05 µM (inactive).

`Cc1nc2ccc(NC3OC(CO)C(O)C(O)C3O)cc2c(=O)n1-c1ccccc1` (stereo unspecified): the GI50 in [20] is > 100 µM (inactive); in experiment [2], > 100 µM (inactive); in experiment [4], > 100 µM (inactive); in experiment [5] it was > 100 µM (inactive); in [6] it was > 100 µM (inactive); in experiment [8], 92.7 µM (inactive). Also, the GI50 in experiment [9], in [10], in experiment [11], in experiment [12], in experiment [13] and in experiment [14] was > 100 µM (inactive) each time. For the same compound, the GI50 in experiment [15] was > 100 µM (inactive); in experiment [16] it was > 100 µM (inactive); in [17], above 100 µM; in [18], > 100 µM (inactive).

On to `COc1ccc(C(=O)/C=C/c2ccc(OCCCCCCCCCCOc3ccc(/C=C/C(=O)c4ccc(OC)cc4)cc3)cc2)cc1`, for which the GI50 in experiment [20], in [1], in experiment [2], in [3], in [4] and in experiment [5] was > 100 µM (inactive) each time. Also, the GI50 in [6], in experiment [7], in experiment [8], in [9], in [10] and in experiment [11] was > 100 µM (inactive) each time. Also, the GI50 in [13] was > 100 µM (inactive); in [14] it was > 100 µM (inactive); in experiment [15], > 100 µM (inactive); in experiment [16], > 100 µM (inactive); in experiment [17] it was above 100 µM; in [18] it was > 100 µM (inactive).

Regarding `COc1c(Sc2c(SCSc3cnc4ccccc4c3Sc3cnc4ccccc4c3OC)cnc3ccccc23)cnc2ccccc12`, the GI50 in experiment [1] is > 100 µM (inactive); in experiment [2], 38.6 µM (inactive); in [4] it was 29 µM (inactive); in experiment [5], 31.7 µM (inactive); in experiment [6] it was 8.13 µM (inactive); in experiment [7] it was > 100 µM (inactive). Further, the GI50 in experiment [8] is > 100 µM (inactive); in experiment [9], > 100 µM (inactive); in experiment [10] it was 52.2 µM (inactive); in experiment [11] it was 39.1 µM (inactive); in experiment [12], 54.8 µM (inactive); in experiment [13], 26.9 µM (inactive). Moreover, the GI50 in experiment [14] is > 100 µM (inactive); in [15], > 100 µM (inactive); in experiment [16], > 100 µM (inactive); in experiment [17], 84.5 µM; in experiment [18], 30.1 µM (inactive); in [19], 13.2 µM (inactive).

With `Cc1nc2c(o1)C(=O)c1ccccc1/C2=N/C1CCCCC1N` (stereo unspecified), the GI50 in experiment [1] was 0.247 µM (active); in [2] it was 1.98 µM (inactive); in experiment [4], 0.373 µM (active); in [5], 0.274 µM (active); in experiment [6], 1.26 µM (inactive); in [7] it was 0.425 µM (active). For the same compound, the GI50 in experiment [8] is 1.67 µM (inactive); in experiment [9], 1.09 µM (active); in experiment [10], 0.644 µM (active); in experiment [11] it was 0.169 µM (active); in experiment [12] it was 0.0975 µM (active); in experiment [13] it was 0.162 µM (active). Further, the GI50 in experiment [14] is 1.75 µM (inactive); in experiment [15], 1.77 µM (inactive); in experiment [16], 1.66 µM (inactive); in experiment [17], 0.547 µM; in [18] it was 0.312 µM (active); in [19], 0.483 µM (active).

Regarding `COc1cc2c(cc1OC)CCc1cc(OC)c(OC)cc1CC2`, the GI50 in [1], in experiment [2], in experiment [3], in [4], in experiment [5] and in experiment [6] was > 100 µM (inactive) in each case. For the same compound, the GI50 in [7], in experiment [8], in experiment [10], in experiment [11], in experiment [12] and in experiment [13] was > 100 µM (inactive) each time. Further, the GI50 in [14] was > 100 µM (inactive); in experiment [15], > 100 µM (inactive); in experiment [16] it was > 100 µM (inactive); in experiment [17], above 100 µM; in experiment [18] it was > 100 µM (inactive); in experiment [19], > 100 µM (inactive).

As for `COc1ccc2[nH]c3c(c2c1)CCc1ccccc1-3`, the GI50 was > 100 µM (inactive) in experiment [1]; > 100 µM (inactive) in [2]; 40.9 µM (inactive) in experiment [3]; 20.2 µM (inactive) in experiment [4]; 27.7 µM (inactive) in [5]; 19.8 µM (inactive) in [6]. The GI50 in [7] was > 100 µM (inactive); in experiment [8], 32.4 µM (inactive); in experiment [9], 38.7 µM (inactive); in experiment [10] it was 17.4 µM (inactive); in experiment [11], > 100 µM (inactive); in experiment [12], 41.7 µM (inactive). The GI50 in [13] was > 100 µM (inactive); in [14], > 100 µM (inactive); in experiment [15] it was 50.7 µM (inactive); in [16] it was > 100 µM (inactive); in [17], 70.5 µM; in experiment [18], 30.3 µM (inactive). Besides, the GI50 in experiment [19] was 51.2 µM (inactive).

Consider `N#Cc1c(NC(=S)Nc2ccccc2)sc2c1CCCC2`, for which the GI50 in experiment [20], in experiment [2], in experiment [4], in experiment [5], in [6] and in experiment [8] was > 100 µM (inactive) each time. For the same compound, the GI50 in experiment [9] is > 100 µM (inactive); in experiment [10], > 100 µM (inactive); in experiment [11], 94.2 µM (inactive); in experiment [12] it was > 100 µM (inactive); in experiment [13] it was > 100 µM (inactive); in [14] it was > 100 µM (inactive). Moreover, the GI50 was > 100 µM (inactive) in [15], > 100 µM (inactive) in [16], above 100 µM in experiment [17] and > 100 µM (inactive) in experiment [18].

In the case of `COc1ccc(CNC(=O)[C@H](Cc2ccc(O)cn2)NC(C)=O)cc1`, the GI50 in [20], in experiment [1], in [2], in experiment [3], in experiment [6] and in experiment [7] was > 100 µM (inactive) throughout. The GI50 in experiment [8], in [9], in experiment [10], in [11], in [12] and in experiment [13] was > 100 µM (inactive) each time. Also, the GI50 is > 100 µM (inactive) in [14]; > 100 µM (inactive) in experiment [15]; > 100 µM (inactive) in experiment [16]; above 100 µM in experiment [17]; > 100 µM (inactive) in experiment [18].

On to `CN1CCN(CC(=O)N2CCCn3c2nc2ccccc2c3=O)CC1`, for which the GI50 in experiment [1], in experiment [2], in [3], in [4], in experiment [5] and in experiment [6] was > 100 µM (inactive) throughout. In addition, the GI50 in experiment [7], in experiment [8], in [9], in [10], in [11] and in [12] was > 100 µM (inactive) throughout. The GI50 in [13] is > 100 µM (inactive); in experiment [14] it was > 100 µM (inactive); in experiment [15], > 100 µM (inactive); in experiment [16], > 100 µM (inactive); in experiment [17], above 100 µM; in [18], > 100 µM (inactive). Besides, the GI50 in [19] is 48.2 µM (inactive).

Take `CN(C)C1C(CO)OC(n2cnc3c(N)ncnc32)C1O` (stereo unspecified): the GI50 in experiment [1], in experiment [2], in experiment [3], in [4], in [5] and in experiment [6] was > 100 µM (inactive) in each case. Besides, the GI50 in [7], in experiment [8], in experiment [9], in [10], in experiment [11] and in experiment [12] was > 100 µM (inactive) throughout. Moreover, the GI50 in experiment [13] was > 100 µM (inactive); in experiment [14], > 100 µM (inactive); in [15], > 100 µM (inactive); in experiment [16] it was > 100 µM (inactive); in experiment [17], above 100 µM; in experiment [18], > 100 µM (inactive).

The values above are taken from ChEMBL document CHEMBL1201862, “PubChem BioAssay data set” (2004).
